{"source": "paper PMC8760323", "about": "“Single-chain tandem macrocyclic peptides as a scaffold for growth factor and cytokine mimetics” (Communications Biology, 2022)", "key": {"HEL cells [1]": {"tested_on": "HEL cells", "test": "Phosphokinase array (TPO signal cascade)", "format": "cell-based, human", "conditions": "5.4 nM rhTPO or 1:1000 diluted TMP-PA8 supernatant, 20 min", "description": "The TPO signal cascade was analyzed using the Proteome Profiler Human Phosphokinase Array Kit (R&D Systems). Briefly, 1 × 10^6 HEL cells in a 6-well cell culture dish were starved in RPMI 1640 medium for 24 h. The starved cells were stimulated by 5.4 nM rhTPO or 1:1000 diluted TMP-PA8 containing a C. glutamicum supernatant for 20 min, rinsed once with PBS, and lysed with 200 μL of lysis buffer 17 supplemented with a protease inhibitor cocktail. Lysates were analyzed using the Proteome Profiler Human Phosphokinase Array Kit (R&D Systems) according to the manufacturer’s instructions. Chemiluminescence was detected using Amersham Imager 600 (Cytiva)."}, "HEL cells [2]": {"tested_on": "HEL cells", "test": "Phospho-CREB ELISA", "format": "cell-based, human", "description": "Here, 100,000 HEL cells were seeded on a 96-well cell culture plate in RPMI 1640 medium and incubated overnight for starvation. The starved cells were stimulated by rhTPO or TMP-PA8 for 20 min, rinsed once with PBS, and lysed with lysis buffer 17 supplemented with a protease inhibitor cocktail. The phosphorylation level of CREB was assessed using phospho-CREB (Ser133) and the Total CREB ELISA kit (RayBio) according to the manufacturer’s instructions. The amounts of phospho-CREB and total CREB were quantified by measuring absorbance at 450 nm, and the phospho-CREB level was calculated as (absorbance of pCREB)/(absorbance of total CREB)."}}}
{"substance": "rhTPO: recombinant human TPO (Peprotech)", "values": [{"measurement": "phosphorylation of STAT3, STAT5, Erk1/2 and CREB compared with unstimulated cells", "setting": "HEL cells [1]", "result": "enhanced"}, {"measurement": "Normazlied pCREB/CREB", "setting": "HEL cells [2]; 7.375 pM, replicate 1", "result": 1.252}, {"measurement": "Normazlied pCREB/CREB", "setting": "HEL cells [2]; 7.375 pM, replicate 2", "result": 0.9311}, {"measurement": "Normazlied pCREB/CREB", "setting": "HEL cells [2]; 7.375 pM, replicate 3", "result": 0.9649}, {"measurement": "Normazlied pCREB/CREB", "setting": "HEL cells [2]; 22.12 pM, replicate 1", "result": 1.113}, {"measurement": "Normazlied pCREB/CREB", "setting": "HEL cells [2]; 22.12 pM, replicate 2", "result": 1.1408}, {"measurement": "Normazlied pCREB/CREB", "setting": "HEL cells [2]; 22.12 pM, replicate 3", "result": 1.274}, {"measurement": "Normazlied pCREB/CREB", "setting": "HEL cells [2]; 66.37 pM, replicate 1", "result": 1.03}, {"measurement": "Normazlied pCREB/CREB", "setting": "HEL cells [2]; 66.37 pM, replicate 2", "result": 1.312}, {"measurement": "Normazlied pCREB/CREB", "setting": "HEL cells [2]; 66.37 pM, replicate 3", "result": 1.353}, {"measurement": "Normazlied pCREB/CREB", "setting": "HEL cells [2]; 199.1 pM, replicate 1", "result": 1.208}, {"measurement": "Normazlied pCREB/CREB", "setting": "HEL cells [2]; 199.1 pM, replicate 2", "result": 1.421}, {"measurement": "Normazlied pCREB/CREB", "setting": "HEL cells [2]; 199.1 pM, replicate 3", "result": 1.637}, {"measurement": "Normazlied pCREB/CREB", "setting": "HEL cells [2]; 597.4 pM, replicate 1", "result": 1.281}, {"measurement": "Normazlied pCREB/CREB", "setting": "HEL cells [2]; 597.4 pM, replicate 2", "result": 1.5026}, {"measurement": "Normazlied pCREB/CREB", "setting": "HEL cells [2]; 597.4 pM, replicate 3", "result": 1.479}, {"measurement": "Normazlied pCREB/CREB", "setting": "HEL cells [2]; 1.79211e-9 M, replicate 1", "result": 1.452}, {"measurement": "Normazlied pCREB/CREB", "setting": "HEL cells [2]; 1.79211e-9 M, replicate 2", "result": 1.237}, {"measurement": "Normazlied pCREB/CREB", "setting": "HEL cells [2]; 1.79211e-9 M, replicate 3", "result": 1.5195}, {"measurement": "Normazlied pCREB/CREB", "setting": "HEL cells [2]; 5.37634e-9 M, replicate 1", "result": 1.523}, {"measurement": "Normazlied pCREB/CREB", "setting": "HEL cells [2]; 5.37634e-9 M, replicate 2", "result": 0.9969}, {"measurement": "Normazlied pCREB/CREB", "setting": "HEL cells [2]; 5.37634e-9 M, replicate 3", "result": 1.102}, {"measurement": "promotion of CREB phosphorylation", "setting": "HEL cells [2]; at concentrations of 0.1-1 nM", "result": 1.5, "unit": "fold"}]}
